Where two headings read alike, the source gives them in different places. Bounds are passed on as bounds.

In one data set the target is T1, human TLR8 (Homo sapiens, UniProt Q9NR97).
T1 construct: expressed in transfected cells; host or cells: HEK293
T1 sequence (Q9NR97 27-1041): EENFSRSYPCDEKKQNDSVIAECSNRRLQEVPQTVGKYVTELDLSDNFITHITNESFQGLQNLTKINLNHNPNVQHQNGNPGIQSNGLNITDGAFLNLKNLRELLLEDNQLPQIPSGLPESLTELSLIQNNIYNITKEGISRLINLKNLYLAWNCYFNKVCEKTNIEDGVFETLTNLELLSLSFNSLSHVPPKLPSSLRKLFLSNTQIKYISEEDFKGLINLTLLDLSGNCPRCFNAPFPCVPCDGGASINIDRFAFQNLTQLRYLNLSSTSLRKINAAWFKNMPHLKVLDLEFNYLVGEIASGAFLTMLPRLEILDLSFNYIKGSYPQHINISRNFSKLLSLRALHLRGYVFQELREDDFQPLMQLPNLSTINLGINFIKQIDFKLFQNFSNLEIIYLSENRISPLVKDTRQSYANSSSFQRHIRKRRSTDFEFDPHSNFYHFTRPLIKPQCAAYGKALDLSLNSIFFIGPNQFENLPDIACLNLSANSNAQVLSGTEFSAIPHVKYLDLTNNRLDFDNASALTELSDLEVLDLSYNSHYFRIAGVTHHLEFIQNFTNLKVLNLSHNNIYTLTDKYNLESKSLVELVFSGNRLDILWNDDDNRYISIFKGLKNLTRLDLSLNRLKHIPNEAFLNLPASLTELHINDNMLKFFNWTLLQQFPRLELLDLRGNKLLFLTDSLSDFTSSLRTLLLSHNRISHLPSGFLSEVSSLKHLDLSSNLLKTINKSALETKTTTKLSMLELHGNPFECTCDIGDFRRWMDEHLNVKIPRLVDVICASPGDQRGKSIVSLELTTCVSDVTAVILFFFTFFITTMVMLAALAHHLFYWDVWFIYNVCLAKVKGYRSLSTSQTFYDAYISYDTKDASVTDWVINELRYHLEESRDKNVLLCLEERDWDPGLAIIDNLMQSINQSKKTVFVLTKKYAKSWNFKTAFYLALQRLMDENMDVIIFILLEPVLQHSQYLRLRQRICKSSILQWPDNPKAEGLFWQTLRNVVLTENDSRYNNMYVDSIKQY
In words: TLR8 cellular reporter assay (HEK293 TLR8-NFκB-luc). It is filed as cell-based. Conditions: lowest effective concentration; HEK293 transiently transfected with TLR8 and NFκB-luc; 6 hours incubation. On the procedure:
The ability of compounds to activate human TLR7 and TLR8 was assessed in a cellular reporter assay using HEK293 cells transiently transfected with a TLR7 or TLR8 expression vector and NFκB-luc reporter construct. Briefly, HEK293 cells were grown in culture medium (DMEM supplemented with 10% FCS and 2 mM Glutamine). For transfection of cells in 10 cm dishes, cells were detached with Trypsin-EDTA, transfected with a mix of CMV-TLR7 or TLR8 plasmid (750 ng), NFκB-luc plasmid (375 ng) and a transfection reagent and incubated 48 hours at 37° C. in a humidified 5% CO2 atmosphere. Transfected cells were then detached with Trypsin-EDTA, washed in PBS and resuspended in medium to a density of 1.67×10^5 cells/mL. Thirty microliters of cells were then dispensed into each well in 384-well plates, where 10 μL of compound in 4% DMSO was already present. Following 6 hours incubation at 37° C., 5% CO2, the luciferase activity was determined by adding 15 μl of Steady Lite Plus substrate (Perkin Elmer) to each well and readout performed on a ViewLux ultraHTS microplate imager (Perkin Elmer). Dose response curves were generated from measurements performed in quadruplicates. Lowest effective concentrations (LEC) values, defined as the concentration that induces an effect which is at least two fold above the standard deviation of the assay, were determined for each compound.
Background: In a reporter assay the amount or activity of a reporter protein is the signal.

For the next data set, the target named is T2, human TLR7 (Homo sapiens, UniProt Q9NYK1).
T2 construct: expressed in transfected cells; host or cells: HEK293
T2 sequence (Q9NYK1 27-1049): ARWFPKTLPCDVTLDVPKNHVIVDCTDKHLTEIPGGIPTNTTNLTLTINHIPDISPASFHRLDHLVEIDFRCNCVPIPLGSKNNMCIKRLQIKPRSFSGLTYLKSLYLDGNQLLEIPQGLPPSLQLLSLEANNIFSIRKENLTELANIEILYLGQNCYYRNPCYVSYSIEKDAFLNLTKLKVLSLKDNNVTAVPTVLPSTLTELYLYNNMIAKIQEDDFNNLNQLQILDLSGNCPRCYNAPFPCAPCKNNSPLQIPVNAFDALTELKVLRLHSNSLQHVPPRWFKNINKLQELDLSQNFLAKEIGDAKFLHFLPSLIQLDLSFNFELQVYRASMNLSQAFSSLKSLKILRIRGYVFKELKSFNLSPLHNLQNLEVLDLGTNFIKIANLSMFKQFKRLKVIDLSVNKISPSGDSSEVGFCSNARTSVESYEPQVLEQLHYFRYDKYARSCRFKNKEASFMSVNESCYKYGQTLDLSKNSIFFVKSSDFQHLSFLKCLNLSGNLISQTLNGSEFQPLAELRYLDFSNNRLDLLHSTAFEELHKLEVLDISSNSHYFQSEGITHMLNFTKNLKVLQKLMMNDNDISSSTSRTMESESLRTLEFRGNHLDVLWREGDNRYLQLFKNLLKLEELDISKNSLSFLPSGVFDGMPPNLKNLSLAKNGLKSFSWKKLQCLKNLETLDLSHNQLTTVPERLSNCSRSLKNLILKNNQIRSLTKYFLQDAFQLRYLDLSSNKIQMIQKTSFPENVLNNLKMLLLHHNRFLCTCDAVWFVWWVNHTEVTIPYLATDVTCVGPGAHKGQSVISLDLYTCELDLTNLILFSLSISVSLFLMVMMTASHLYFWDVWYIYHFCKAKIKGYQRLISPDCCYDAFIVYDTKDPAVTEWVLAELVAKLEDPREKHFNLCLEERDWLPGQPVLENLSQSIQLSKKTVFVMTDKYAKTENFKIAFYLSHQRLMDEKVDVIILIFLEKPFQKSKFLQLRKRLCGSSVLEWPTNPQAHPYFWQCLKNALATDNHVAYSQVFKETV
In words: TLR7 cellular reporter assay (HEK293 TLR7-NFκB-luc). Conditions: lowest effective concentration; HEK293 transiently transfected with TLR7 and NFκB-luc; 6 hours incubation. It counts as cell-based. Summed up: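 HEK293 cells transiently co-transfected with CMV-TLR7 or TLR8 plasmid plus NFκB-luciferase reporter, 48 h post-transfection, then exposed to compound (added in 4% DMSO) for 6 h at 37 °C. Luciferase read-out; quadruplicate dose-response, LEC defined as concentration giving effect at least two-fold above assay SD.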

Data set [1] concerns interferon production in human PBMC. In words: Interferon production in human PBMC, read out on HEK-ISRE-luc reporter cells. It is filed as cell-based. Conditions: Homo sapiens, PBMC, 24 h, lowest effective concentration, PBMC supernatant after overnight incubation transferred to HEK-ISRE-luc cells, read-out: PBMC HEK-ISRE-luc (LEC; μM). Summed up:
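Human PBMCs from at least two donors (2×10^5/well, RPMI with 10% human AB serum) incubated overnight with compounds; conditioned supernatant transferred onto HEK-ISRE-luc reporter cells for 24 h. Luciferase read-out reported as LEC, with recombinant interferon alfa-2a as standard.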

For data set [2] the following is noted: rcm bond.

Take `Nc1nc2nc3c1nc(O)n3Cc1ncccc1/C=C\CCCO2` [Compound 41]: the “LEC on HEK293 TLR8-NFκB-luc” value at human TLR8 came to 11.16 µM. On human TLR7, the “HEK293 TLR7-NFκB-luc (LEC; μM)” value was found to be 1.93 µM. Moreover, the minimal effective concentration in data set [1] is 0.48 µM.
On the same counts, the results for `Nc1nc2nc3c1nc(O)n3Cc1ccccc1C/C=C/CCO2` [Compound 47] are 5.48 µM, 3.43 µM and 2.34 µM.
On the same counts, the results for `Nc1nc2nc3c1nc(O)n3Cc1ncccc1OCC/C=C/CO2` [Compound 40] are above 19.49 µM, 1.3 µM and 0.15 µM.
`CCOC(=O)N1Cc2ccc(F)c(c2)OCC=CCOc2nc(N)c([N+](=O)[O-])c1n2`: the ring closure, yield of all isomers in data set [2] (from C=CCOc1nc(N)c([N+](=O)[O-])c(N(Cc2ccc(F)c(OCC=C)c2)C(=O)OCC)n1, Grubbs-Hoveyda catalyst 2nd generation (with chlorodicyclohexylborane), 1,2-dichloroethane, 5.07 mM, 120.0 °C, 3.0 h) was found to be 58%.
As for `COc1cc2cc(c1)OC/C=C/COc1nc(N)c3nc(O)n(c3n1)C2` [Compound 75], the “LEC on HEK293 TLR8-NFκB-luc” value on human TLR8 was 0.27 µM. Also, the “HEK293 TLR7-NFκB-luc (LEC; μM)” value at human TLR7 amounted to 0.0068 µM. The minimal effective concentration in data set [1] was determined as 0.0026 µM.
In data set [2] (from C=CCOc1nc(N)c([N+](=O)[O-])c(N(Cc2ccc(OC)c(OCC=C)c2)C(=O)OCC)n1, Grubbs catalyst 2nd generation, CH2Cl2, 3.63 mM, 25.0 °C, 66.0 h), `CCOC(=O)N1Cc2ccc(OC)c(c2)OCC=CCOc2nc(N)c([N+](=O)[O-])c1n2` registered a ring closure, yield of all isomers of 7.6%.
As to `Nc1nc2nc3c1ncn3Cc1cccc(c1)CC=CCCO2`, the ring closure, yield of all isomers in data set [2] (from C=CCCOc1nc(N)c2ncn(Cc3cccc(CC=C)c3)c2n1, Hoveyda-Grubbs 2nd generation (with chlorodicyclohexylborane), 1,2-dichloroethane, 2.98 mM, 120.0 °C, 23.0 h) stood at 34%.
Take `Nc1nc2nc3c1nc(O)n3Cc1ncccc1OCC/C=C\CO2` [Compound 39]: at human TLR8, the “LEC on HEK293 TLR8-NFκB-luc” value amounted to 20.46 µM. Besides, at human TLR7, the “HEK293 TLR7-NFκB-luc (LEC; μM)” value came out at 1.16 µM. In addition, the minimal effective concentration in data set [1] was found to be 0.22 µM.
`CCOc1nc2c(N)nc3nc2n1Cc1cccc(c1)CC=CCCCn1ccnc1-3`: the ring closure, yield of all isomers in data set [2] (from C=CCCCn1ccnc1-c1nc(N)c2nc(OCC)n(Cc3cccc(CC=C)c3)c2n1, Grubbs catalyst 2nd generation, CH2Cl2, 3.76 mM, 25.0 °C, 24.0 h) came out at 5%.
In the case of `CCOC(=O)N1Cc2cccc(c2)CC=CCCOc2nc(N)c([N+](=O)[O-])c1n2`, the ring closure, yield of all isomers in data set [2] (from C=CCCOc1nc(N)c([N+](=O)[O-])c(N(Cc2cccc(CC=C)c2)C(=O)OCC)n1, Grubbs catalyst 2nd generation, CH2Cl2, 3.14 mM, 25.0 °C, 16.0 h) amounted to 27.4%.
`CCOC(=O)N1CCc2cccc(c2)OCC=CCOc2nc(N)c([N+](=O)[O-])c1n2` had a ring closure, yield of all isomers in data set [2] (from C=CCOc1cccc(CCN(C(=O)OCC)c2nc(OCC=C)nc(N)c2[N+](=O)[O-])c1, Grubbs 2nd generation, dichloromethane, 5.2 mM, 25.0 °C, 36.0 h) of 56.5%.
Molecule `CCOC(=O)N1Cc2cccc(c2)CC=CCCCOc2nc(N)c([N+](=O)[O-])c1n2` registered a ring closure, yield of all isomers in data set [2] (from C=CCCCOc1nc(N)c([N+](=O)[O-])c(N(Cc2cccc(CC=C)c2)C(=O)OCC)n1, Grubbs catalyst 2nd generation, CH2Cl2, 3.13 mM, 25.0 °C, 2.0 h) of 73%.
`Nc1nc2nc3c1ncn3Cc1ncccc1OCC=CCCO2`: the ring closure, yield of all isomers in data set [2] (from C=CCCOc1nc(N)c2ncn(Cc3ncccc3OCC=C)c2n1, Grubbs-Hoveyda catalyst 2nd generation (with chlorodicyclohexylborane), 1,2-dichloroethane, 3.04 mM, 120.0 °C, 10.0 h) was 5%.
Take `COc1nc2c(N)nc3nc2n1Cc1cccc(c1)CC=CCCO3`: the ring closure, yield of all isomers in data set [2] (from C=CCCOc1nc(N)c2nc(OC)n(Cc3cccc(CC=C)c3)c2n1, Grubbs catalyst 2nd generation, CH2Cl2, 3.42 mM, 24.0 h) stood at 23%.
